US5013841A, “Oxo quinoline derivatives” (Dainippon Pharmaceutical Co., Ltd., priority 1987, dated 1991)
Converted amounts (≈) assume the structure as drawn. Where two headings read alike, the source gives them in different places.

Legend:
[1] = Urinary excretion in mice (thin-layer cup-plated method, Escherichia coli Kp indicator); type: in vivo; conditions: mouse, urine, oral, 5 mg/kg, read-out: Urinary recovery for 24 hours
Method: A suspension containing each of compounds was orally administered to mice at a dose of 5 mg/kg. Urine was collected over a period of 24 hours after adminstration. The levels of the compounds in urine were determined by the thin-layer cup-plated method using Escherichia coli Kp as an indicator organism.

E. coli NIHJ JC-2 = test: In vitro antibacterial activity (twofold agar-dilution method); type: cell-based; conditions: Escherichia coli, NIHJJC2, 20 h, read-out: minimum inhibitory concentration (MIC)
Method: (§1) The figures in the table show minimum inhibitory concentrations (MIC) (μg/ml), calculated for free base. The minimum inhibitory concentration was determined by the twofold agar-dilution method, which was recommended by Japan Society of Chemotherapy (Chemotherapy, 29(1), 76(1981)), using Muller-Hinton agar. One loopful of an overnight culture of test organisms in Mueller-Hinton broth was inoculated onto 10-ml drug-containing agar layers in petri dishes. Bacterial inocula contained approximately 10^6 colonyl-formingunits. Bacterial growth was observed after 20-hour incubation at 37° C. The MIC was defined as the lowest drug concentration which prevented visible bacterial growth.

E. coli P-5101 = test: as above; type: cell-based; conditions: Escherichia coli, P5101, 20 h, read-out: minimum inhibitory concentration (MIC)
Method: as §1

Flavobacterium sp P-7201 = test: as above; type: cell-based; conditions: Flavobacterium, P7201, 20 h, read-out: minimum inhibitory concentration (MIC)
Method: as §1

P. Aeruginosa 12 = test: as above; type: cell-based; conditions: Pseudomonas aeruginosa, 20 h, read-out: minimum inhibitory concentration (MIC)
Method: as §1

S. aureus 209 JC-1 = test: as above; type: cell-based; conditions: Staphylococcus aureus, 209JC1, 20 h, read-out: minimum inhibitory concentration (MIC)
Method: as §1

S. aureus No. 80 = test: as above; type: cell-based; conditions: Staphylococcus aureus, NO.80, 20 h, read-out: minimum inhibitory concentration (MIC)
Method: as §1

S. aureus Terajima = test: as above; type: cell-based; conditions: Staphylococcus aureus, 20 h, read-out: minimum inhibitory concentration (MIC)
Method: as §1

S. epidermidis No. 8 = test: as above; type: cell-based; conditions: Staphylococcus epidermidis, NO.8, 20 h, read-out: minimum inhibitory concentration (MIC)
Method: as §1

S. marcescens IFO 3736 = test: as above; type: cell-based; conditions: Serratia marcescens, IFO3736, 20 h, read-out: minimum inhibitory concentration (MIC)
Method: as §1

S. pyogenes Cook = test: as above; type: cell-based; conditions: Streptococcus pyogenes, 20 h, 37° C., calculated for free base, read-out: minimum inhibitory concentration (MIC)
Method: as §1

[2] = system: Staphylococcus aureus 50774; type: in vivo, Staphylococcus aureus (male mice, Std-ddY); conditions: Staphylococcus aureus, 50774, po, 336 h, read-out: median effective dose (ED50)
From the text: Staphylococcus aureus 50774
Intravenous infection with 5×10^8 cells per mouse suspended in saline.
For 7 days for other organisms.

[3] = system: Streptococcus pneumoniae 1 Neufeld; type: in vivo, Streptococcus pneumoniae (male mice, Std-ddY); conditions: 336 h, read-out: median effective dose (ED50)
M. pneumoniae Mac = test: Antimycoplasma activity (twofold agar dilution method); type: cell-based, Mycoplasma pneumoniae; conditions: Mycoplasmoides pneumoniae, 168 h, read-out: minimum inhibitory concentration (MIC)
Method: (§2) The figures in the table show minimum inhibitory concentrations (MIC), (μg/ml), calculated for free base.
(§3) Minimum inhibitory concentrations (MIC) were determined by the twofold agar dilution method. The media used were Chanock broth and agar PPLD broth and agar (Difco) supplemented with 20% horse serum and 10% fresh yeast extract). A 2-3 day broth culture of organisms was diluted with Chanock broth to a cell density of about 10^6 cells/ml. One loopful (about […]) of the organism dilution was spotted onto 10-ml drug containing Chanock agar in petri dishes using a multiple inoculator (Cathra International). The petri dishes were incubated at 37° C. for 7 and 2 days for Mycoplasma pneumoniae and other Mycoplasma spp. respectively. Incubation was performed anaerobically using the Gaspak anaerobic system (BBL) for M. buccale, M. fermentans, M. hominis, M. orale and M. salivarium, and aerobically for other Mycoplasma spp. The MIC was defined as the lowest compound concentration at which no growth of organism was detected.

A. laidlawii PG-8 = test: as above; type: cell-based; conditions: Acholeplasma laidlawii, PG8, 48 h, read-out: minimum inhibitory concentration (MIC)
Method: as §2, §3

M. arginini G-230 = test: as above; type: cell-based; conditions: 48 h, read-out: minimum inhibitory concentration (MIC)
Method: as §2, §3

M. buccale CH-20249 = test: as above; type: cell-based; conditions: 48 h, read-out: minimum inhibitory concentration (MIC)
Method: as §2, §3

M. fermentans PG-18 = test: as above; type: cell-based; conditions: Mycoplasmopsis fermentans, PG18, 48 h, read-out: minimum inhibitory concentration (MIC)
Method: as §2, §3

M. hominis PG-21 = test: as above; type: cell-based; conditions: Metamycoplasma hominis, PG21, 48 h, read-out: minimum inhibitory concentration (MIC)
Method: as §2, §3

M. hyorhinis BST-7 = test: as above; type: cell-based; conditions: Mesomycoplasma hyorhinis, BST7, 48 h, read-out: minimum inhibitory concentration (MIC)
Method: as §2, §3

M. orale CH-19299 = test: as above; type: cell-based; conditions: 48 h, read-out: minimum inhibitory concentration (MIC)
Method: as §2, §3

M. salivarium PG-20 = test: as above; type: cell-based; conditions: 48 h, read-out: minimum inhibitory concentration (MIC)
Method: as §2, §3

[4] = system: C. Trachomatics G/ur 1317; test: Antichlamydia activity (inclusion bodies in McCoy cells); type: cell-based; conditions: 36° C., 40-48 h, calculated for free base, read-out: minimum inhibitory concentration (MIC)
Method: (§4) Minimum inhibitory concentrations (MIC) were determined as follows. McCoy cells were freshly cultured in Eagle's minimum essential medium (EMEM) (Flow) supplemented with 4% fetal bovine serum and 0.03% L-glutamine. The cells were trypsinized and suspended in the same culture medium at a cell concentration of 1-2×10^5 cells/ml. One ml of the cell suspension was pipetted into flat-bottomed plastic tubes (14 mm in diameter) containing a cover slip (12 mm in diameter). The tubes were incubated in 5% CO2 -air at 36° C. for 20 hours. One-half ml of a chlamydial suspension (ca. 1-4×10^3 inclusion body forming units) was added into each tube, which was then centrifuged at 1500×g for 60 minutes. The tubes were incubated for 1 hour at 36° C. The medium was changed with 1 ml of EMEM supplemented with 8% fetal bovine serum, 0.03% L-blutamine, 1μg/ml cycloheximide and 0.5% glucose, and containing drugs at various concentrations. After further incubation at 36° C. for 40-48 hours, the cells on the cover glasses were stained with the Giemsa's solution. […] The MIC was defined as the lowest drug concentration where there were no inclusion bodies in all the cells on the cover slip.

[5] = system: C. Trachomatics G/ur 1467; test: as above; type: cell-based; conditions: 36° C., 40-48 h, calculated for free base, read-out: minimum inhibitory concentration (MIC)
Method: as §4

[6] = system: C. Trachomatics G/ur 1483; test: as above; type: cell-based; conditions: 36° C., 40-48 h, calculated for free base, read-out: minimum inhibitory concentration (MIC)
Method: as §4

C. Trachomatics G/ur 931 = test: as above; type: cell-based; conditions: 36° C., 40-48 h, calculated for free base, read-out: minimum inhibitory concentration (MIC)
Method: as §4

[7] = system: Streptococcus pyogenes A65; conditions: A65, in Mus musculus, po, 168 h, read-out: median effective dose (ED50)

For `CC1CN(c2c(F)c(N)c3c(=O)c(C(=O)O)cn(C4CC4)c3c2F)CC(C)N1` (centres unmarked) [Compound C, 5-amino-1-cyclopropyl-6,8-difluoro-7-(3,5-dimethyl-1-piperazinyl)-1,4-dihydro-4-oxoquinoline-3-carboxylic acid, reference compound], which dose excreted at 24 h [1] is on record?
Its dose excreted at 24 h is 4.51%.

Which MIC (E. coli NIHJ JC-2) does the source give for `O=C(O)c1cn(C2CC2)c2cc(N3CCNCC3)c(F)cc2c1=O` [Compound A, reference compound] here?
Its MIC is 0.0063 µg/mL (≈ 0.019 µM).

And the MIC (E. coli P-5101)?
Its MIC is 0.0063 µg/mL (≈ 0.019 µM).

What about the MIC (Flavobacterium sp P-7201) of the same compound?
Its MIC is 0.39 µg/mL (≈ 1.18 µM).

What about the MIC (P. Aeruginosa 12) of the same compound?
The MIC was 0.1 µg/mL (≈ 0.302 µM).

What about the MIC (S. aureus 209 JC-1) of the same compound?
Its MIC is 0.1 µg/mL (≈ 0.302 µM).

What about the MIC (S. aureus No. 80) of the same compound?
Its MIC is 0.39 µg/mL (≈ 1.18 µM).

And the MIC (S. aureus Terajima)?
The MIC was 0.1 µg/mL (≈ 0.302 µM).

What about the MIC (S. epidermidis No. 8) of the same compound?
Its MIC is 0.1 µg/mL (≈ 0.302 µM).

What about the MIC (S. marcescens IFO 3736) of the same compound?
Its MIC is 0.05 µg/mL (≈ 0.151 µM).

And the MIC (S. pyogenes Cook)?
Its MIC is 0.2 µg/mL (≈ 0.604 µM).

What about the ED50 [2] of the same compound?
Its ED50 is 8.24 mg/kg.

What about the ED50 ([3]; po) of the same compound?
The ED50 was 31.3 mg/kg.

And the MIC (M. pneumoniae Mac)?
Its MIC is 0.78 µg/mL (≈ 2.35 µM).

And the MIC (A. laidlawii PG-8)?
Its MIC is 0.39 µg/mL (≈ 1.18 µM).

What about the MIC (M. arginini G-230) of the same compound?
Its MIC is 0.39 µg/mL (≈ 1.18 µM).

What about the MIC (M. buccale CH-20249) of the same compound?
Its MIC is 0.39 µg/mL (≈ 1.18 µM).

And the MIC (M. fermentans PG-18)?
The MIC was 0.2 µg/mL (≈ 0.604 µM).

And the MIC (M. hominis PG-21)?
Its MIC is 1.56 µg/mL (≈ 4.71 µM).

And the MIC (M. hyorhinis BST-7)?
The MIC was 0.39 µg/mL (≈ 1.18 µM).

What about the MIC (M. orale CH-19299) of the same compound?
Its MIC is 1.56 µg/mL (≈ 4.71 µM).

What about the MIC (M. salivarium PG-20) of the same compound?
Its MIC is 3.13 µg/mL (≈ 9.45 µM).

What about the MIC [4] of the same compound?
The MIC was 2 µg/mL (≈ 6.04 µM).

And the MIC [5]?
Its MIC is 1 µg/mL (≈ 3.02 µM).

What about the MIC [6] of the same compound?
The MIC was 1 µg/mL (≈ 3.02 µM).

What about the MIC (C. Trachomatics G/ur 931) of the same compound?
Its MIC is 1 µg/mL (≈ 3.02 µM).

For `Nc1c(F)c(N2CCNCC2)c(F)c2c1c(=O)c(C(=O)O)cn2C1CC1` [Compound B, 5-amino-1-cyclopropyl-6,8-difluoro-7-(1-piperazinyl)-1,4-dihydro-4-oxoquinoline-3-carboxylic acid, reference compound], which MIC (E. coli NIHJ JC-2) is on record?
Its MIC is 0.0063 µg/mL (≈ 0.0173 µM).

What about the MIC (E. coli P-5101) of the same compound?
The MIC was 0.0063 µg/mL (≈ 0.0173 µM).

What about the MIC (Flavobacterium sp P-7201) of the same compound?
Its MIC is 0.1 µg/mL (≈ 0.274 µM).

What about the MIC (P. Aeruginosa 12) of the same compound?
Its MIC is 0.1 µg/mL (≈ 0.274 µM).

What about the MIC (S. aureus 209 JC-1) of the same compound?
The MIC was 0.05 µg/mL (≈ 0.137 µM).

And the MIC (S. aureus No. 80)?
The MIC was 0.05 µg/mL (≈ 0.137 µM).

And the MIC (S. aureus Terajima; S. aureus Terajima, agar dilution, 37° C., calculated for free base)?
The MIC was 0.025 µg/mL (≈ 0.0686 µM).

What about the MIC (S. epidermidis No. 8) of the same compound?
Its MIC is 0.05 µg/mL (≈ 0.137 µM).

And the MIC (S. marcescens IFO 3736)?
Its MIC is 0.1 µg/mL (≈ 0.274 µM).

What about the MIC (S. pyogenes Cook) of the same compound?
Its MIC is 0.2 µg/mL (≈ 0.549 µM).

And the ED50 ([3]; mice, oral, four times (immediately, 6, 24 and 30 h after intraperitoneal infection), 14 days, calculated for free base)?
The ED50 was 20.8 mg/kg.

What about the ED50 [7] of the same compound?
Its ED50 is greater than 50 mg/kg.
